According to patent US10072005B2, “4-azaindole derivatives” (EISAI R&D MANAGEMENT CO., LTD., priority 2013, dated 2018):

How the values were obtained:
mAChR M1 = mAChR M1 (Homo sapiens, UniProt P11229); experiment: In vitro cellular calcium flux assay, positive allosteric modulation of mAChR M1; type: cell-based; conditions: BHK cells expressing mAChR M1; EC20 carbachol; Examples 76-80 and 82-89 slightly modified procedure
In short: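 Baby hamster kidney cells stably expressing human mAChR M1, loaded with Calcium 4 dye in HBSS/20 mM HEPES/2.5 mM probenecid for 30 min at 37 °C. An 11-point 1-in-3 compound dilution series was added and calcium rise read as fluorescence; positive allosteric modulator pEC50 and antagonist pIC50 derived.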

mAChR M2 = mAChR M2 (Homo sapiens (Human), UniProt P08172); experiment: In vitro cellular calcium flux assay, PAM, NAM and agonist modes, mAChR M2; type: cell-based
Method: (§1) Baby hamster kidney cells stably expressing human or rat mAChR M1 to M5 were utilised for primary and selectivity profiling activities. mAChR M2 and M4 cell lines also stably expressed the chimeric Gαqi5 G-protein.
(§2) Human mAChR M1, M3, M5 and rat M1 cells were grown in low glucose Dulbecco's Modified Eagle's Medium (DMEM) medium plus heat inactivated 10% fetal bovine serum (HI FBS) and 500 μg/ml hygromycin B^1. Human mAChR M2 and M4 cells were maintained as above with^2 the addition of 500 μg/ml G418 to the media. Cells were maintained in culture at 37° C./5% CO2 and passaged twice weekly by treatment with 0.05% Trypsin/EDTA detachment solution, centrifugation (200 g, 5 min) and re-suspension in fresh media. Following cell expansion, cells were cryopreserved at −80° C. by treatment with 0.05% Trypsin/EDTA detachment solution, centrifugation (200 g, 5 min) and re-suspension of the pellet in freezing media (90% HI FBS/10% DMSO^3) at 15E6 cells/ml^4.
(§3) Prior to assaying, cells were prepared by thawing at 37° C. in a water bath, centrifugation (200 g, 5 min) and re-suspension of the pellet in fresh media. 15000 cells per well were seeded in black, clear bottomed 384-well Greiner Bio-One plates in plating medium (DMEM/10% HI FBS) and incubated overnight at 37 C/5% CO2.
(§4) On the day of the assay, media was removed from each well and replaced with 50 μl^5 assay buffer (HBSS with 20 mM HEPES and 2.5 mM Probenecid) containing the calcium indicator, Calcium 4 (Molecular Devices). Cells were then incubated at 37° C./5% CO2 for 30 min and at room temperature.
(§5) Compound preparation was carried out by generation of 11-point, 1 in 3 serial dilution concentration response curves in 100% DMSO. Compound was then diluted 1 in 65^6 with assay buffer (HBSS with 20 mM HEPES and 2.5 mM Probenecid) prior to the addition of 10 ul^7 to the cells using a Tetra fluorometric imaging plate reader (Molecular Devices)^8. Compound driven increases in intracellular calcium flux was measured as an increase in fluorescence (494Ex, 516Em)^9.
(§6) Positive allosteric modulator pEC50 values and antagonist pIC50 values for each compound were then determined. […] The points of modification and the alternate reagents, concentrations or equipment employed in these examples were: ^1200 μg/ml hygromycin B; ^2G418 not added; ^3CELLBANKER 1; ^410E6; ^5 40 μl; ^6 1 in 99; ^7 20 μl; ^8FDSS6000 (Hamamatsu Photonics); ^9(480Ex, 540Em); ^10Spotfire (TIBCO).
(§7) Certain compounds were tested in PAM, NAM and agonist modes against mAChR M2, M3, M4 and M5.

mAChR M3 = mAChR M3 (Homo sapiens (Human), UniProt P20309); experiment: In vitro cellular calcium flux assay, PAM, NAM and agonist modes, mAChR M3; type: cell-based
Method: as §1, §2, §3, §4, §5, §6, §7

mAChR M4 = mAChR M4 (Homo sapiens (Human), UniProt P08173); experiment: In vitro cellular calcium flux assay, PAM, NAM and agonist modes, mAChR M4; type: cell-based
Method: as §1, §2, §3, §4, §5, §6, §7

mAChR M5 = mAChR M5 (Homo sapiens (Human), UniProt P08912); experiment: In vitro cellular calcium flux assay, PAM, NAM and agonist modes, mAChR M5; type: cell-based
Method: as §1, §2, §3, §4, §5, §6, §7

Male Lister Hooded rats = experiment: Novel Object Recognition test; type: in vivo; conditions: rat, 24 h delay
Method: The Novel Object Recognition test (NOR) is based on the greater spontaneous exploration of a novel object, compared with a familiar object, observed in rodents (Behav. Brain Res., 1988, 31(1), 47-59). […] Therefore, it is considered to be analogous to recognition memory tests used in human clinical testing. Male Lister Hooded rats were assessed for object recognition in a test apparatus comprising of a perspex test arena housed within a sound attenuating chamber. Video images of behaviour were captured by digital camera and recorded to a computer. Rats were habituated to the test arena on four occasions prior to testing. Habituation sessions replicated the test day sequence exactly with the exception of object presentation. On test days, each rat was placed into the test arena and 3 minutes later the rat was presented with two identical objects (plastic shapes). The time spent actively exploring the objects during a 3-minute test period (T1) was recorded. Following T1 rats were returned to home cages. After 24 hours each rat was again placed in the test arena and 3 minutes later was presented with one of the now familiar objects and a novel object, and again the time spent actively exploring the objects during a 3-minute test period (T2) was recorded. The presentation order and position of objects (left/right) was randomised within groups to prevent bias from order or place preference. Objects were cleaned with 70% ethanol solution between trials to remove any olfactory/taste cues. Compounds were administered by oral gavage at an appropriate pre-treatment time prior to T1 and T2 (n=12) at dosage ranges between 0.03 and 3 mg/kg. In some experiments the 5-HT6 receptor antagonist N-(3,5-dichloro-2-methoxyphenyl)-4-methoxy-3-(piperazin-1-yl)benzenesulfonamide (CAS 402713-80-8) (10 mg/kg p.o.; 4 h pre-treatment time) was included as a positive control. Vehicle controls (1% methylcellulose in water) were included for comparison in each study. Results are expressed as the d2 index (difference in time spent exploring novel and familiar objects/total object exploration in T2).

mAChR M4, sequence (P08173 whole entry): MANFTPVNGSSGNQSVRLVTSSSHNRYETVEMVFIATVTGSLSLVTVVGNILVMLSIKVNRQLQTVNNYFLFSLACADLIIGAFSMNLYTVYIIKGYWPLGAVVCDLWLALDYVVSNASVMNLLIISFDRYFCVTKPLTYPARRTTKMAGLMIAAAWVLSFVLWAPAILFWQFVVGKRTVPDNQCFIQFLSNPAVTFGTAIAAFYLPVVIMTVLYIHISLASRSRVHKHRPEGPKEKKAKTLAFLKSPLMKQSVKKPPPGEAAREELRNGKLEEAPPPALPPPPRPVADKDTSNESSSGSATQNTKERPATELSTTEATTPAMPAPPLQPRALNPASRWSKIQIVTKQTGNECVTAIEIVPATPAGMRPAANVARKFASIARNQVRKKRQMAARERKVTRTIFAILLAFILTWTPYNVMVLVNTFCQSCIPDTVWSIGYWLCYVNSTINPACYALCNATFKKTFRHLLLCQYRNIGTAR
mAChR M2, sequence (P08172 whole entry): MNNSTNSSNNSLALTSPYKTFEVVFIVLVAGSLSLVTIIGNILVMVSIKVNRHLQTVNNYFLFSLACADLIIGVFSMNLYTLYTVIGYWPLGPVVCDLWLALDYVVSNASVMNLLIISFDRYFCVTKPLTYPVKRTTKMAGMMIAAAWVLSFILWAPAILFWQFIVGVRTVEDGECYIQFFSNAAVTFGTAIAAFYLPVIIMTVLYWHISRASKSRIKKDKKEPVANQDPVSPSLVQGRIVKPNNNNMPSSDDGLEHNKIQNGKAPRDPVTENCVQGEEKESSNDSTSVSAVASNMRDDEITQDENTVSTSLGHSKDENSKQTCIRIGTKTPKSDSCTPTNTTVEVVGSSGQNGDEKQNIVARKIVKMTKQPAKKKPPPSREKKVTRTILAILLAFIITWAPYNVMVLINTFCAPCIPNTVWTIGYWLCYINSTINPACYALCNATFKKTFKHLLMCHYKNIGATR
mAChR M3, sequence (P20309 whole entry, looked up): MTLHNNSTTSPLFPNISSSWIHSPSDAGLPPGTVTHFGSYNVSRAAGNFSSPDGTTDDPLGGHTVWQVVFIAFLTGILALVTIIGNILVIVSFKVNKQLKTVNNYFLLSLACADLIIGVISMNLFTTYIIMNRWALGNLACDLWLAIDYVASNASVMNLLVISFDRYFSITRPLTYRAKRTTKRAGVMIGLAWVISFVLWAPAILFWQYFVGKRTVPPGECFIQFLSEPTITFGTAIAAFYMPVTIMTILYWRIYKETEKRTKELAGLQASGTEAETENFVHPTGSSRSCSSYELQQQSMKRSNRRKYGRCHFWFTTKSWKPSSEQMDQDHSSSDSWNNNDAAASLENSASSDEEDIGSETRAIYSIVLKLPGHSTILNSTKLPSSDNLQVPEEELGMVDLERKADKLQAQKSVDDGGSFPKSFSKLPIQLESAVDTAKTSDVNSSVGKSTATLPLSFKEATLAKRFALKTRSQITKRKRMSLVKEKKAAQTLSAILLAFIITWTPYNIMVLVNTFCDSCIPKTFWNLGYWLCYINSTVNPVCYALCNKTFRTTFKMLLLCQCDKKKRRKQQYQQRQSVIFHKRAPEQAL
mAChR M1, sequence (P11229 whole entry, looked up): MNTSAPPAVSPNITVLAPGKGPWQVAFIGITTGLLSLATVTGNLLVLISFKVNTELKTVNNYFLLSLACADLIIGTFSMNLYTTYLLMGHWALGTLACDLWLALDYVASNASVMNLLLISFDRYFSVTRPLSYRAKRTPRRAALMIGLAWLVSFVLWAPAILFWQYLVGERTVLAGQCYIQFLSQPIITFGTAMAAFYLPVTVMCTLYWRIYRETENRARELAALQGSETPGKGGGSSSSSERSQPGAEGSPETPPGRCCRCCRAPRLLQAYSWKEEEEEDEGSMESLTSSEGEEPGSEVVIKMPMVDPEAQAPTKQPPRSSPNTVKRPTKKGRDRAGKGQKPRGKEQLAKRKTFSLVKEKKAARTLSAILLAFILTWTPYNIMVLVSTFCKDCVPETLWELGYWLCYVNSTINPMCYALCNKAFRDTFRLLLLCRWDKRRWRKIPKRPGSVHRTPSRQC
mAChR M5, sequence (P08912 whole entry): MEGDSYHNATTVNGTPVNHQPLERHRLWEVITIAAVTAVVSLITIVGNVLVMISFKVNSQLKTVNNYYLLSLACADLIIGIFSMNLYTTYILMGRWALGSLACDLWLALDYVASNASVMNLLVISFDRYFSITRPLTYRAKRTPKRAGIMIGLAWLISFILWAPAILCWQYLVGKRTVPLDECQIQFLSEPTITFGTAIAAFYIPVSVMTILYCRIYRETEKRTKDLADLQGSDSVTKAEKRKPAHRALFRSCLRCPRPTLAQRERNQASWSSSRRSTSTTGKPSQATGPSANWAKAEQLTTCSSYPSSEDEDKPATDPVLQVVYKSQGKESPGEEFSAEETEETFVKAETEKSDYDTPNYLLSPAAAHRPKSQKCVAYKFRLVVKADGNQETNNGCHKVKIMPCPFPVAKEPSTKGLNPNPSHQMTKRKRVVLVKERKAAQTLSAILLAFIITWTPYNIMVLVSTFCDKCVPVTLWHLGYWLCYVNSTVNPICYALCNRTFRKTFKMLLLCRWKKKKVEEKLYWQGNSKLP

Row | Structure (SMILES) | pEC50 for positive allosteric modulation (mAChR M1) | EC50 (mAChR M2) [µM] | EC50 (mAChR M3) [µM] | EC50 (mAChR M4) [µM] | EC50 (mAChR M5) [µM] | d2 index [mean ± SEM] (Male Lister Hooded rats; 0.03 mg/kg p.o.) | d2 index [mean ± SEM] (Male Lister Hooded rats; 0.1 mg/kg p.o.) | d2 index [mean ± SEM] (Male Lister Hooded rats; 0.3 mg/kg p.o.) | d2 index [mean ± SEM] (Male Lister Hooded rats; 1 mg/kg p.o.) | d2 index [mean ± SEM] (Male Lister Hooded rats; 3 mg/kg p.o.)
1 | Cc1ccnc2c(C(=O)N[C@H]3CCCC[C@@H]3O)cn(Cc3ccc(F)cc3)c12 [Example 10, 1-(4-Fluorobenzyl)-N-((1S,2S)-2-hydroxycyclohexyl)-7-methyl-1H-pyrrolo[3,2-b]pyridine-3-carboxamide] | 7.7 | > 10 | > 10 | > 10 | > 10 | [0.18 ± 0.10] | [0.18 ± 0.09] | [0.30 ± 0.08]** |  | 
2 | O=C(NC1CCC(F)(F)C[C@@H]1O)c1cn(Cc2ccc(F)cc2)c2cccnc12 (single isomer, unassigned) [Example 34, N-(trans-4,4-Difluoro-2-hydroxycyclohexyl)-1-(4-fluorobenzyl)-1H-pyrrolo[3,2-b]pyridine-3-carboxamide] | 6.9 | > 10 | > 10 | > 10 | > 10 |  | [0.08 ± 0.08] | [0.24 ± 0.05]* | [0.23 ± 0.06]* | 
3 | Cc1ccnc2c(C(=O)N[C@H]3CCCC[C@@H]3O)cn(Cc3cccc(F)c3F)c12 [Example 11, 1-(2,3-Difluorobenzyl)-N-((1S,2S)-2-hydroxycyclohexyl)-7-methyl-1H-pyrrolo[3,2-b]pyridine-3-carboxamide] | 6.9 | > 10 | > 10 | > 10 | > 10 |  |  | [0.24 ± 0.06] | [0.24 ± 0.07] | [0.31 ± 0.06]**
4 | Cc1cc(Cn2cc(C(=O)N[C@H]3CCCC[C@@H]3O)c3ncccc32)ccc1F [Example 6, 1-(4-Fluoro-3-methylbenzyl)-N-((1S,2S)-2-hydroxycyclohexyl)-1H-pyrrolo[3,2-b]pyridine-3-carboxamide] | 6.7 | > 10 | > 10 | > 10 | > 10 |  |  | [0.11 ± 0.09] | [0.27 ± 0.08]* | [0.36 ± 0.09]**
5 | O=C(N[C@H]1CCCC[C@@H]1O)c1cn(Cc2cccc(F)c2F)c2cccnc12 [Example 8, 1-(2,3-Difluorobenzyl)-N-((1S,2S)-2-hydroxycyclohexyl)-1H-pyrrolo[3,2-b]pyridine-3-carboxamide] | 6.5 | > 10 | > 10 | > 10 | > 10 | [0.00 ± 0.07] | [0.09 ± 0.06] | [0.34 ± 0.06]*** |  | 
6 | COc1ccc(Cn2cc(C(=O)N[C@H]3CCCC[C@@H]3O)c3nccc(C)c32)cc1 [Example 12, N-((1S,2S)-2-Hydroxycyclohexyl)-1-(4-methoxybenzyl)-7-methyl-1H-pyrrolo[3,2-b]pyridine-3-carboxamide] | 7.7 | > 10 | > 10 | > 10 | > 10 |  |  | [0.13 ± 0.06] | [0.30 ± 0.05]*** | [0.33 ± 0.06]***
7 | COc1ccc(Cn2cc(C(=O)N[C@H]3CCCC[C@@H]3O)c3nccc(C)c32)cc1F [Example 13, 1-(3-Fluoro-4-methoxybenzyl)-N-((1S,2S)-2-hydroxycyclohexyl)-7-methyl-1H-pyrrolo[3,2-b]pyridine-3-carboxamide] | 7.9 | > 10 | > 10 | > 10 | > 10 |  |  | [0.09 ± 0.05] | [0.13 ± 0.07] | [0.25 ± 0.09]*
